Experiments:
Assay in all cases: Phosphoinositide hydrolysis in vitro
Type in all cases: biochemical
PLC β2 = PLC β2 (Homo sapiens, UniProt Q00722)
Experimental: (§1) The hydrolyzing activity of PtdIns-4,5-P2 was measured on mixed phospholipid vesicles containing 120 μM phosphatidylethanolamine, 30 μM PtdIns-4,5-P2, and 1 μCi/ml [3H] PtdIns-4,5-P2. Purified PLC β2, substrates, and the chemicals (2.5, 5, 10, 20, and 25 μM of m-3M3FBS or of o-3M3FBS) were coincubated (A), 25 μM of m-3M3FBS or o-3M3FBS, and phospholipid substrates were mixed with purified PLC β3, γ1, 2, or δ1 (B). Reactions were performed for 10 min at 37° C. in a 200 μl reaction mixture containing lipid micelles (5 μM [^3H] PtdIns-4,5-P2, 20,000 cpm). Reactions were stopped by adding 1 ml of CHCl3:CH3OH:HCl (50:50:0.3, v/v/v). Inositol trisphosphates were extracted with 0.5 ml of 1 M HCl/5 mM EGTA, and the radioactivity in the upper aqueous phase was measured. Data are presented as means ±S. E. M. of three independent experiments (A, B).
(§2) PLC activity was assayed using [^3H] PtdIns-4,5-P2 as a substrate (Min et al., 1993). PtdIns-4,5-P2-hydrolyzing activity was measured with mixed phospholipid micelles containing 120 μM phosphatidylethanolamine, 30 μM PtdIns-4,5-P2, and 1 μCi/ml [^3H] PtdIns-4,5-P2. The lipids, in chloroform, were dried under a stream of nitrogen gas, suspended in assay buffer (20 mM HEPES pH 7.0, 120 mM NaCl, 2 mM MgCl2, 40 or 100 μM CaCl2, and 1 mg/ml bovine albumin serum (Bayer, Leverkusen, Germany)), and sonicated. All proteins added to the reaction mixture were dialyzed overnight against the assay buffer. Incubation was performed for 10 min at 37° C. in a 200 μl reaction mixture containing lipid micelles (5 μM [3H] PtdIns-4,5-P2, 20,000 cpm). The reaction was stopped by adding 2 ml of CHCl3: CH3OH: HCl (50: 50: 0.3, v/v/v). The inositol triphosphates were extracted with 0.5 ml of 1 N HCl, and radioactivities in the upper aqueous phase were measured.

PLC δ1 = target: T1, PLC δ1 (Homo sapiens, UniProt P51178); conditions: 25 μM; purified isozyme
T1 sequence (P51178 1-756): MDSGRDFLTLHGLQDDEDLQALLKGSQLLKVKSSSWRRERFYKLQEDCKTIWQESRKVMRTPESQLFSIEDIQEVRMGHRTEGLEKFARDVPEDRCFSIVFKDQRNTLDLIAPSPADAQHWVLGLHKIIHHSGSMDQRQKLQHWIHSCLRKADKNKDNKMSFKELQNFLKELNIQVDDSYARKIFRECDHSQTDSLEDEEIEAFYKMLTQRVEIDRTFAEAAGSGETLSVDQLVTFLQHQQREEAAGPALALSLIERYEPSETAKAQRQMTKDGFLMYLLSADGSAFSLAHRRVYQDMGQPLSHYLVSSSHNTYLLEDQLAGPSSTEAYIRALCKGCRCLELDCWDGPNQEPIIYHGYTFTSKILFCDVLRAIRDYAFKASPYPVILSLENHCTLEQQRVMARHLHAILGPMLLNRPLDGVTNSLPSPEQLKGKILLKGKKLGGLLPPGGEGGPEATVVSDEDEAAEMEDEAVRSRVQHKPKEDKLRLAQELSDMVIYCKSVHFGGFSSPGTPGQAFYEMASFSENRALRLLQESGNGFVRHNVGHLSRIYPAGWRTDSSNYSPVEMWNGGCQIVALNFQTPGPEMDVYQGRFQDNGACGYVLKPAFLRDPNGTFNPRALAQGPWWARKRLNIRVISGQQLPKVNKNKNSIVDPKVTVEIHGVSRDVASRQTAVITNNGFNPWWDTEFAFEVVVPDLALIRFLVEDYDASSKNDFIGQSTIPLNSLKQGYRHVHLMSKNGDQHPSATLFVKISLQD
Experimental: as §1, §2

PLC γ2 = target: T2, PLC γ2 (Homo sapiens, UniProt P16885); conditions: 25 μM; purified isozyme
T2 sequence (P16885 1-1265): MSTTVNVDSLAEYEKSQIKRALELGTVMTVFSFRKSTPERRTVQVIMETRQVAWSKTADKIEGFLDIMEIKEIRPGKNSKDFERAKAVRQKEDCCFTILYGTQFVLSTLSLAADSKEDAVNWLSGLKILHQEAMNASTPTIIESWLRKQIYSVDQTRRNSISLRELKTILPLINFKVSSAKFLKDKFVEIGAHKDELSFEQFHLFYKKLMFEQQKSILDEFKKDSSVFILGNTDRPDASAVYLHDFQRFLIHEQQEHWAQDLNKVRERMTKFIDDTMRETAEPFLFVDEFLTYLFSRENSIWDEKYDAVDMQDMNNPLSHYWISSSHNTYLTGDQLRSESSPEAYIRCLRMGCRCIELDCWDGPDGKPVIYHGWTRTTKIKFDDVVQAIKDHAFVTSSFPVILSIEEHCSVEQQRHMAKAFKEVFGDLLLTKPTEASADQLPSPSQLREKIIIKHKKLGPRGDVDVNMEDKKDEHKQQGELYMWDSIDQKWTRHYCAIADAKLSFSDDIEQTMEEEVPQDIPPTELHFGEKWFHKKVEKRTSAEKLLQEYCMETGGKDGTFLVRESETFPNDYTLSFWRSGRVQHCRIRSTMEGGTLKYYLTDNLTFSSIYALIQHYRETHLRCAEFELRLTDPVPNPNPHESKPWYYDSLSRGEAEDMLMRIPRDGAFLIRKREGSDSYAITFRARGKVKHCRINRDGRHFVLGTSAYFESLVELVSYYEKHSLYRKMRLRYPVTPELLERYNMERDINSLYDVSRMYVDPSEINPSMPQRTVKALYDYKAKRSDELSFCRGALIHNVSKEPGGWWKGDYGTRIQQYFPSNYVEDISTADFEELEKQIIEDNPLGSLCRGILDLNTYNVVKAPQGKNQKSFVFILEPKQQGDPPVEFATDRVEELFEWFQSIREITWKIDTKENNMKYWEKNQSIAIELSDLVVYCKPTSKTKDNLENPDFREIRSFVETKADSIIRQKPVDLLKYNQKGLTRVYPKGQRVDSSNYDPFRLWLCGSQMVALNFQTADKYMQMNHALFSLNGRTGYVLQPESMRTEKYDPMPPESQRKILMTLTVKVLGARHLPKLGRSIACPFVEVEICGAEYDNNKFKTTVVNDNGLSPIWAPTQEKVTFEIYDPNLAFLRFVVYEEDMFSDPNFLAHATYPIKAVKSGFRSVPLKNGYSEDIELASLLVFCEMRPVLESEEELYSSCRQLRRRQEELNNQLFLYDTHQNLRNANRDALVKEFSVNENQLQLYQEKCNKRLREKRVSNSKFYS
Experimental: as §1, §2

Sequence of PLC β2 (Q00722 whole entry, species assumed): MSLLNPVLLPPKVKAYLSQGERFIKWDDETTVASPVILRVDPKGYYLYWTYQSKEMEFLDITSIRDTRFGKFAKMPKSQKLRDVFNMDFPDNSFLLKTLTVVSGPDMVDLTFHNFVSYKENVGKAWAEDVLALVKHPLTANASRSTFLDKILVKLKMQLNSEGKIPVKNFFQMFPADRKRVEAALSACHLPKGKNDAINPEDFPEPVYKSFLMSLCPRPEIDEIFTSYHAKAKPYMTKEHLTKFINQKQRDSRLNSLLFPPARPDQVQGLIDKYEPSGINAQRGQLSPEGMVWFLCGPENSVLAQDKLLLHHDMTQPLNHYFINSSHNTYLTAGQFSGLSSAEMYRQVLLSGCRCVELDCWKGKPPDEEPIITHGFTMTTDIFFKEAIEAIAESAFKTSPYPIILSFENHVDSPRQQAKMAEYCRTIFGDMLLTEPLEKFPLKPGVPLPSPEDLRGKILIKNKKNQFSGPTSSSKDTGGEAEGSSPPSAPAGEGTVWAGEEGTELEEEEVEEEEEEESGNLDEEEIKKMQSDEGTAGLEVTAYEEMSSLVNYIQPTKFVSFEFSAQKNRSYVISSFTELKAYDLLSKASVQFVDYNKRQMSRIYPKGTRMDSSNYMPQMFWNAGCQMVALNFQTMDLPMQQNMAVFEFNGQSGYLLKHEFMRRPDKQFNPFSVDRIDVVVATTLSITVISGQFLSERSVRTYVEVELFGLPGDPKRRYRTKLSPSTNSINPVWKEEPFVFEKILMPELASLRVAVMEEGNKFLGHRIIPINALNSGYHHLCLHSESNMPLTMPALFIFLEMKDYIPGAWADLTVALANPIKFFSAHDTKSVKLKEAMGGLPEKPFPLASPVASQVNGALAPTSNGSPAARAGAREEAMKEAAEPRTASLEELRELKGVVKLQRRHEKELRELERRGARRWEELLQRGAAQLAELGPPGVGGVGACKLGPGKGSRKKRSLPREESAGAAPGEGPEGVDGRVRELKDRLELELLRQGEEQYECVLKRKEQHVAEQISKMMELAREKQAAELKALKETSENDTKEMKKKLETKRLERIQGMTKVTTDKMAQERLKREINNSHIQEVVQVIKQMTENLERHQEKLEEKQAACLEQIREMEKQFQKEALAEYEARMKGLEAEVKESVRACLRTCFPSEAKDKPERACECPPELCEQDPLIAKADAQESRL

SMILES | in vitro PLCβ2 activity (PLC β2; [3H] PtdIns as substrate, data not shown) | concentration at which PIP2-hydrolyzing activity of PLC β2 was enhanced (PLC β2; [3H] PtdIns-4,5-P2 substrate) | effect on PIP2-hydrolyzing activity of PLC β2 (PLC β2; low doses (ca., 2.5 and 5 μM), [3H] PtdIns-4,5-P2 substrate) | activity of PLC delta1 (PLC δ1) | activity of PLC gamma2 (PLC γ2) | effect on PIP2-hydrolyzing activity of PLC β2 (PLC β2; at 10 μM or higher concentrations (up to 25 μM))
Cc1cc(C)c(S(=O)(=O)Nc2cccc(C(F)(F)F)c2)c(C)c1 [m-3M3FBS, 2,4,6-Trimethyl-N-(meta 3-trifluoromethyl-phenyl)-benzenesulfonamide] | significantly increased | exceeding 10 μM | no effect | augmented the activity | augmented the activity | 
Cc1cc(C)c(S(=O)(=O)Nc2ccccc2C(F)(F)F)c(C)c1 [o-3M3FBS, 2,4,6-Trimethyl-N-(ortho 3-trifluoromethyl-phenyl)-benzenesulfonamide, reference compound] |  |  |  | did not affect | did not affect | no effect

— patent US20040220268A1, “Compound that directly stimulates phospholipase C activity” (priority 2003, published 2004)
